test system: Jurkat; assay: Cytotoxicity against Jurkat T lymphocytes by MTT assay; format: functional, cell-based; settings: Homo sapiens

SMILES	IC50 [µM]	IC75 [µM]
COc1cccc2c1C(=O)c1c(O)c3c(c(O)c1C2=O)C[C@@](O)(C(C)=O)C[C@@H]3O[C@H]1C[C@H](NCc2cccc(CN[C@@H]3C[C@@H](O[C@H]4C[C@](O)(C(C)=O)Cc5c(O)c6c(c(O)c54)C(=O)c4c(OC)cccc4C6=O)O[C@H](C)[C@@H]3O)c2)[C@H](O)[C@H](C)O1	0.017	0.0535
COc1cccc2c1C(=O)c1c(O)c3c(c(O)c1C2=O)C[C@@](O)(C(C)=O)C[C@@H]3O[C@H]1C[C@H](NCc2ccc(CN[C@@H]3C[C@@H](O[C@H]4C[C@](O)(C(C)=O)Cc5c(O)c6c(c(O)c54)C(=O)c4c(OC)cccc4C6=O)O[C@H](C)[C@@H]3O)cc2)[C@H](O)[C@H](C)O1	0.0177	0.06
COc1cccc2c1C(=O)c1c(O)c3c(c(O)c1C2=O)C[C@@](O)(C(C)=O)C[C@@H]3O[C@H]1C[C@H](N)[C@H](O)[C@H](C)O1 [DAUNORUBICIN]	0.0826	0.182

Reference: ChEMBL document CHEMBL1140422, “A new bisintercalating anthracycline with picomolar DNA binding affinity” (J Med Chem, 2005)
